Measurements as given in patent publication US7399826B1, “Peptide for promoting healing of fractures” (priority 2003, dated 2008).
No end group written: not given here.

System: ulnar osteotomies in New Zealand rabbits
Assay: Ulnar osteotomy fracture healing study in rabbits
Type: in vivo
Settings: all rabbits (study and control groups); four-week study
Method: Ulnar osteotomies were carried out in forty, three-month-old New Zealand rabbits. Half of the rabbits were placed in a study group while the other half was placed in a control group. All the rabbits were anesthetized using intramuscular ketamine 35 mg/kg body weight mixed with Xylazine 5 mg/kg body weight and an ophthalmic band with gentamycin ophthalmic ointment. A dose of prophylactic intramuscular cefuraxmine 25 mg/kg body weight was also administered. The forelimb was shaved and prepped in a sterile fashion. Through a posterior incision, the muscles were retracted and the shaft of the ulna was identified. Osteotomy was carried out equidistant between the olecranon and the wrist joint. The osteotomy was irrigated with normal saline. The wound was closed in layers and dressed with betadine and opsite spray. The animals were kept together in similar conditions. On the third post-operative day, the study group was injected with about 2.5-5 mg/kg of the peptide, synthesized as described above, in 0.25 ml of sterile water around the osteotomy site, while the control group received 0.25 ml of normal saline at the osteotomy site. Every week, five rabbits in the control group and five in the study group were sacrificed and their limbs were dissected and stored in 2% formalin. The study was carried out for four weeks. […]

MIFVKTLTGKTIL [SHMSP, Met-Ile-Phe-Val-Lys-Thr-Leu-Thr-Gly-Lys-Thr-Ile-Leu]
tolerability (wound infections, deaths): no wound infections or deaths
